Test system: 885724-159-R-J1-PDC KRAS PDC multicell spheroid viability
Assay: Anticancer human tumor 885724-159-R-J1-PDC patient-derived pancreatic adenocarcinoma cell line growth inhibition [KRAS2]
Settings: for IC50: curve of first compound; for viability, T/C: stronger effect = lower value; active means viability on the fitted dose curve at most 10% of control; inactive means the rest
Method in brief: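 KRAS-mutant tumor cells were grown as spheroids with HUVEC endothelial cells and human MSCs as stroma. Targeted agents were tested alone and with KRAS pathway inhibitors. Doses started at or near clinical Cmax, or 10 microM, descending half-log.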

[1] = second compound 0.1 µM, first compound 0.0316 µM
[2] = second compound 0.1 µM, first compound 0.1 µM
[3] = second compound 0.316 µM, first compound 0.0316 µM
[4] = second compound 0.316 µM, first compound 0.1 µM
[5] = second compound 1 µM, first compound 0.0316 µM
[6] = second compound 1 µM, first compound 0.1 µM
[7] = second compound 3.16 µM, first compound 0.0316 µM
[8] = second compound 3.16 µM, first compound 0.1 µM
[9] = second compound 10 µM, first compound 0.0316 µM
[10] = second compound 10 µM, first compound 0.1 µM
[11] = second compound 0.1 µM, first compound 0.316 µM
[12] = second compound 0.1 µM, first compound 1 µM
[13] = second compound 0.1 µM, first compound 3.16 µM
[14] = second compound 0.1 µM, first compound 10 µM
[15] = second compound 0.316 µM, first compound 0.316 µM
[16] = second compound 0.316 µM, first compound 1 µM
[17] = second compound 0.316 µM, first compound 3.16 µM
[18] = second compound 0.316 µM, first compound 10 µM
[19] = second compound 1 µM, first compound 0.316 µM
[20] = second compound 1 µM, first compound 1 µM
[21] = second compound 1 µM, first compound 3.16 µM
[22] = second compound 1 µM, first compound 10 µM
[23] = second compound 3.16 µM, first compound 0.316 µM
[24] = second compound 3.16 µM, first compound 1 µM
[25] = second compound 3.16 µM, first compound 3.16 µM
[26] = second compound 3.16 µM, first compound 10 µM
[27] = second compound 10 µM, first compound 0.316 µM
[28] = second compound 10 µM, first compound 1 µM
[29] = second compound 10 µM, first compound 3.16 µM
[30] = second compound 10 µM, first compound 10 µM
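Further: spheroids exposed to agents for 7 days before readout.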

CN(C)C/C=C/C(=O)Nc1cc2c(Nc3ccc(F)c(Cl)c3)ncnc2cc1O[C@H]1CCOC1 + C=CC(=O)N1CCN(c2nc(=O)n(-c3c(C)ccnc3C(C)C)c3nc(-c4c(O)cccc4F)c(F)cc23)C(C)C1
> 0.1 µM: IC50 (second compound 0.1 µM) | IC50 (second compound 0.316 µM) | IC50 (second compound 1 µM) | IC50 (second compound 3.16 µM) | IC50 (second compound 10 µM)
inactive: viability, T/C (second compound 0.1 µM, first compound 0.000316 µM) 116% | viability, T/C (second compound 0.1 µM, first compound 0.001 µM) 117% | viability, T/C (second compound 0.1 µM, first compound 0.00316 µM) 106% | viability, T/C (second compound 0.1 µM, first compound 0.01 µM) 95.4% | viability, T/C [1] 90.8% | viability, T/C [2] 79.9% | viability, T/C (second compound 0.316 µM, first compound 0.000316 µM) 124% | viability, T/C (second compound 0.316 µM, first compound 0.001 µM) 118% | viability, T/C (second compound 0.316 µM, first compound 0.00316 µM) 101% | viability, T/C (second compound 0.316 µM, first compound 0.01 µM) 101% | viability, T/C [3] 92.6% | viability, T/C [4] 86% | viability, T/C (second compound 1 µM, first compound 0.000316 µM) 130% | viability, T/C (second compound 1 µM, first compound 0.001 µM) 119% | viability, T/C (second compound 1 µM, first compound 0.00316 µM) 117% | viability, T/C (second compound 1 µM, first compound 0.01 µM) 110% | viability, T/C [5] 93.7% | viability, T/C [6] 90.8% | viability, T/C (second compound 3.16 µM, first compound 0.000316 µM) 114% | viability, T/C (second compound 3.16 µM, first compound 0.001 µM) 117% | viability, T/C (second compound 3.16 µM, first compound 0.00316 µM) 104% | viability, T/C (second compound 3.16 µM, first compound 0.01 µM) 97% | viability, T/C [7] 101% | viability, T/C [8] 89.4% | viability, T/C (second compound 10 µM, first compound 0.000316 µM) 89.4% | viability, T/C (second compound 10 µM, first compound 0.001 µM) 95% | viability, T/C (second compound 10 µM, first compound 0.00316 µM) 83.2% | viability, T/C (second compound 10 µM, first compound 0.01 µM) 78.3% | viability, T/C [9] 66.2% | viability, T/C [10] 69.4%

COc1cc2nccc(Oc3ccc(NC(=O)C4(C(=O)Nc5ccc(F)cc5)CC4)cc3)c2cc1OC + C=CC(=O)N1CCN(c2nc(=O)n(-c3c(C)ccnc3C(C)C)c3nc(-c4c(O)cccc4F)c(F)cc23)C(C)C1
2.4 µM: IC50 (second compound 10 µM)
inactive: viability, T/C [1] 123% | viability, T/C [2] 125% | viability, T/C [11] 142% | viability, T/C [12] 113% | viability, T/C [13] 81.4% | viability, T/C [14] 75.6% | viability, T/C [3] 124% | viability, T/C [4] 117% | viability, T/C [15] 117% | viability, T/C [16] 126% | viability, T/C [17] 90.4% | viability, T/C [18] 77.7% | viability, T/C [5] 118% | viability, T/C [6] 122% | viability, T/C [19] 114% | viability, T/C [20] 126% | viability, T/C [21] 86.4% | viability, T/C [22] 77.6% | viability, T/C [7] 117% | viability, T/C [8] 122% | viability, T/C [23] 123% | viability, T/C [24] 106% | viability, T/C [25] 78.6% | viability, T/C [26] 77.7% | viability, T/C [9] 75.6% | viability, T/C [10] 72.2% | viability, T/C [27] 62.3% | viability, T/C [28] 86.2% | viability, T/C [29] 35.8% | viability, T/C [30] 48.9%
> 10 µM: IC50 (second compound 0.1 µM) | IC50 (second compound 0.316 µM) | IC50 (second compound 1 µM) | IC50 (second compound 3.16 µM)

COc1cc(Nc2ncc3c(n2)-c2ccc(Cl)cc2C(c2c(F)cccc2OC)=NC3)ccc1C(=O)O + CNCc1ccccc1-c1csc(C(C)Nc2nc(C)nc3cc(OC)c(OC)cc23)c1
inactive: viability, T/C [1] 102% | viability, T/C [2] 98.5% | viability, T/C [11] 90.5% | viability, T/C [12] 92.7% | viability, T/C [13] 94.7% | viability, T/C [14] 101% | viability, T/C [3] 102% | viability, T/C [4] 92.7% | viability, T/C [15] 89.4% | viability, T/C [16] 88.5% | viability, T/C [17] 81% | viability, T/C [18] 87.7% | viability, T/C [5] 94.8% | viability, T/C [6] 87.7% | viability, T/C [19] 73.6% | viability, T/C [20] 81.4% | viability, T/C [21] 75.6% | viability, T/C [22] 83.5%
active: viability, T/C [7] 2.11% | viability, T/C [8] 2.66% | viability, T/C [23] 1.13% | viability, T/C [24] 1.16% | viability, T/C [25] 4.03% | viability, T/C [26] 12.1% | viability, T/C [9] 0.16% | viability, T/C [10] 0.37% | viability, T/C [27] 0.43% | viability, T/C [28] 0.34% | viability, T/C [29] 0.16% | viability, T/C [30] 0.35%
> 10 µM: IC50 (second compound 0.1 µM) | IC50 (second compound 0.316 µM) | IC50 (second compound 1 µM)
< 0.0316 µM: IC50 (second compound 3.16 µM) | IC50 (second compound 10 µM)

Source: PubChem BioAssay AID1963861 (Molecular Pharmacology Branch, DTP, NCI, 2024)
